Results taken from US20230142789A1, “A SWEETENER OR SWEETNESS ENHANCER COMPOSITION” (ANALYTICON DISCOVERY GMBH, priority 2020, published 2023).

Experiment: Organoleptic test of the compounds against sucrose
Type: in vivo
Design: key: 3: sweeter than the control solution; 2: sweetness comparable with the control solution; 1: less sweet than the control solution but still sweet
Conditions: 0.4 mg/ml (400 ppm) in non-carbonated mineral water vs sucrose 20 g/l; panel of 3-4 panelists
Protocol: The isolated pure compound was dissolved in non-carbonated mineral water (“Evian”) in a concentration of 0.4 mg/ml (400 ppm). The sweet taste of each sample was compared by a panel of 3-4 panelists with a solution of sucrose in a concentration of 20 g/I.

Compound	Sweetness
C[C@H](CC[C@@H](O[C@@H]1O[C@H](CO[C@@H]2O[C@H](CO)[C@@H](O)[C@H](O)[C@H]2O)[C@@H](O)[C@H](O)[C@H]1O[C@@H]1O[C@H](CO)[C@@H](O)[C@H](O)[C@H]1O)C(C)(C)O)[C@H]1CC[C@@]2(C)[C@@H]3CC=C4C(CC[C@H](O[C@@H]5O[C@H](CO[C@@H]6O[C@H](CO[C@@H]7O[C@H](CO)[C@@H](O)[C@H](O)[C@H]7O)[C@@H](O)[C@H](O)[C@H]6O)[C@@H](O)[C@H](O)[C@H]5O)C4(C)C)[C@]3(C)[C@H](O)C[C@]12C (some centres unmarked) [Mogroside Via]	3
11-Oxoisomogroside V [11-Isomogroside V]	3
